From US10106491B2, “Substituted biaryl alkyl amides” (BioTheryX, Inc., priority 2011, dated 2018)

Tests used:
[1] = system: MDA-MB-468-NFkB-Luc2p cell line; assay: TNF-α induced NFkB reporter assay (luciferase); format: cell-based; conditions: 1 h before 10 ng/ml TNF-α for 6 h, FIG. 3; for result in TNF-α induced NFkB reporter assay: tested at 20 μM and 5 μM
Method: The effects of the compounds described herein on the activation of TNF-mediated pathways were assessed using an MDA-MB-468NFkB-Luc2p reporter cell line (FIG. 3). To construct this cell line, MDA-MB-468 cells were transfected with pGL4.32[luc2P/NF-kB-RE/Hygro] vector (Promega) using TransFast transfection reagent (Promega) according to manufacturer's standard protocol. Briefly, cells were grown in RPMI supplemented with 10% FBS and plated onto sterile 6-well plates (Nunc). When cells became ˜75% confluent, media in each well was removed and replaced with 1 mL RPMI (no FBS) containing […] vector and TransFast for 1 h at 37° C. 2 mL of RPMI with FBS is then added to the well and after 24 h, 500 ug/ml of hygromycin was added for selection to generate a stable reporter cell line.
Stable MDA-MB-468-NFkB-Luc2p cells were plated onto optical-bottom, white wall 96-well plates at 10,000 cells per well and allowed to attach overnight. Compounds B1 through B14 were added at 20 μM and 5 μM respectively for 1 h prior to treatment with 10 ng/ml of recombinant human TNF-α for 6 h. Luciferase signal was determined using the Luciferase Assay System (Promega) and a luminometer.

[2] = system: SK-MEL-28 (metastatic melanoma) cell line; assay: SK-MEL-28 proliferation assay (MTS, percent viability vs DMSO); format: cell-based; conditions: 72 h, FIG. 1
Method: (§1) Proliferation assays were conducted to assess the effects of the compounds described herein on the growth rate of neoplastic cells. For each of the proliferation assays described herein, SK-MEL-28, MDA-MB-468 or Panc-1 cells were grown in RPMI supplemented with 10% FBS and plated onto sterile 96-well tissue culture plates at 20,000 cells per well and allowed to attach overnight. Compounds B1 through B14 were added at 20 μM and 10 μM respectively in the SK-MEL-28 proliferation assay (FIG. 1). Compounds B3, B5, B7, B11 and B12 were added at 20 μM and 10 μM respectively for the MDA-MB-468 (FIG. 2A) and Panc-1 proliferation assays (FIG. 2B). Plates were incubated for 72 h (37° C., 5% CO2). Percent viability compared to DMSO control was determined using an MTS assay (CellTiter 96 Aqueous, Promega) according to the manufacturer's standard protocol. The standard used in the SK-MEL-28 assay is MG132, a proteasome inhibitor, at 10 uM concentration. It was used as a positive control for cell killing. All the assays are referenced to DMSO as the control at 100% proliferation.

[3] = system: MDA-MB-468 (breast cancer) cell line; assay: MDA-MB-468 proliferation assay (MTS); format: cell-based; conditions: for growth rate: 72 h, DMSO control = 100%
Method: as §1

[4] = system: Panc-1 (pancreatic cancer) cell line; assay: Panc-1 proliferation assay (MTS); format: cell-based; conditions: for growth rate: 72 h, DMSO control = 100%
Method: as §1

hCdc34 = biological target: T1, hCdc34 (Homo sapiens, UniProt P49427); conditions: Ceccarelli et al., Cell 145:1075-1087, 2011; cited from earlier work
T1 sequence (P49427 1-236): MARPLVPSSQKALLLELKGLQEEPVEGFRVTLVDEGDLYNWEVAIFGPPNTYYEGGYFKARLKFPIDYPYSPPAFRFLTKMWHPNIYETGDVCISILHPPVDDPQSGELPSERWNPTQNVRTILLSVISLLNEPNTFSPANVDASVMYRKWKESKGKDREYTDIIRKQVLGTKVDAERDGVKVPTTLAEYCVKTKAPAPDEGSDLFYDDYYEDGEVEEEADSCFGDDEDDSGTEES

[5] = SK-MEL-28, tested at 20 μM and 10 μM

SMILES	result in TNF-α induced NFkB reporter assay [1]	inhibitory effect on proliferation [2, 5]	growth rate ([3]; MDA-MB-468, 20 μM)	other results
CCOC(=O)C(O)C(O)C(Cc1ccc(-c2cc(Cl)cc(Cl)c2)cc1)NC(=O)[C@H]1CCCO1 (some centres unmarked) [Compound B4]	good results			
CCOC(=O)C(O)C(O)C(Cc1ccc(-c2cc(Cl)cc(Cl)c2)cc1)NC(=O)CNC(=O)OC(C)(C)C (centres unmarked) [Compound B7]		good inhibitory effect		
CCOC(=O)C(O)C(O)C(Cc1ccc(-c2cc(Cl)cc(Cl)c2)cc1)NC(=O)CCl (centres unmarked) [Compound B3]		good inhibitory effect	5.5%	growth rate ([3]; MDA-MB-468, 10 μM): 6.0%; inhibitory effect on proliferation ([3]; MDA-MB-468, at both concentrations (20 μM and 10 μM)): good inhibitory effect; growth rate ([4]; Panc-1, 10 μM): 4.8%; growth rate ([4]; Panc-1, 20 μM): 5.2%; inhibitory effect on proliferation ([4]; Panc-1, at both concentrations (20 μM and 10 μM)): good inhibitory effect
COCC(=O)N[C@@H](Cc1ccc(-c2cc(Cl)cc(Cl)c2)cc1)[C@H](O)[C@@H](O)C(=O)O [CC0651]				inhibition of hCdc34 (hCdc34): inhibits
CCOC(=O)C(O)C(O)C(Cc1ccc(-c2cc(Cl)cc(Cl)c2)cc1)NC(=O)CN (centres unmarked) [Compound B11]		good inhibitory effect		
CCOC(=O)C(O)C(O)C(Cc1ccc(-c2cc(Cl)cc(Cl)c2)cc1)NC(=O)[C@H](C)N (some centres unmarked) [Compound B12]			11.0%	fold more effective than the control ([2]; SK-MEL-28, 20 μM): about 20 fold; inhibitory effect on proliferation ([2]; SK-MEL-28, 20 μM): excellent inhibitory effect; growth rate ([4]; Panc-1, 20 μM): 24.4%; inhibitory effect on TNF-α induced NFkB luciferase signal ([1]; 20 μM): excellent inhibitory effect
CCOC(=O)C(O)C(O)C(Cc1ccc(-c2cc(Cl)cc(Cl)c2)cc1)NC(=O)[C@@H]1CCCN1C(=O)OC(C)(C)C (some centres unmarked) [Compound B5]	good results	good inhibitory effect	33.5%	
CCOCC(=O)NC(Cc1ccc(-c2cc(Cl)cc(Cl)c2)cc1)C(O)C(O)C(=O)OCC (centres unmarked) [Compound B1]	good results			
